Experimental data reported in the NIST ThermoML archive (doi:10.1016/j.jct.2006.03.002).

Assay: molar heat capacity at constant pressure
Conditions: 101.33 kPa, Crystal, Small sample (50 mg) DSC

[F-].[Na+] [sodium fluoride]
Conditions | molar heat capacity at constant pressure [J/K/mol]
630.6 K | 58.08
645.6 K | 58.11
675.7 K | 59.55
690.6 K | 59.36
720.6 K | 58.15
735.5 K | 59.11
750.6 K | 58.85
765.6 K | 59.28
795.6 K | 58.36
825.5 K | 58.26
840.4 K | 58.49
855.6 K | 59.14
870.6 K | 58.37
885.5 K | 59.37
900.5 K | 59.7
907.5 K | 59.76
915.5 K | 60.11
922.3 K | 60.21
937.4 K | 60.58
945.5 K | 59.64
952.5 K | 59.98
960.6 K | 60.43
967.5 K | 60.92
975.4 K | 59.89
982.6 K | 60.11
990.5 K | 61.01
997.5 K | 60.91
1012.6 K | 61.02
1027.6 K | 60.56
1042.6 K | 61.86
1057.7 K | 61.63
1072.7 K | 62.08
1087.8 K | 62.41
1102.9 K | 62.25
